Reference: patent US5962314A, “Calcium receptor-active molecules” (priority 1997, dated 1999)

Key:
calcitonin = calcitonin levels in rats; format: in vivo, rat; conditions: NPS R-568 p.o.
serum ionized calcium = serum ionized calcium in a human; format: in vivo; conditions: higher single oral doses
From the text: A range of single oral doses was used to assess safety, tolerance, and changes in primary hyperparathyroidism markers (e.g., plasma concentrations of parathyroid hormone and ionized serum calcium) and of serum calcitonin.

[1] = biological target: T1, parathyroid cell calcium receptor (Bos taurus, UniProt P35384); test: Cl- current in Xenopus oocytes injected with bovine parathyroid cell mRNA; format: cell-based; set-up: Whole pieces of gland were used to prepare mRNA that directs the expression of the calcium receptor in Xenopus oocytes; expressed in transfected cells; host or cells: Xenopus laevis oocytes injected with parathyroid poly(A)+ mRNA; conditions: oocytes expressing parathyroid calcium receptor; fendiline 100 μM
T1 sequence (P35384 20-1085): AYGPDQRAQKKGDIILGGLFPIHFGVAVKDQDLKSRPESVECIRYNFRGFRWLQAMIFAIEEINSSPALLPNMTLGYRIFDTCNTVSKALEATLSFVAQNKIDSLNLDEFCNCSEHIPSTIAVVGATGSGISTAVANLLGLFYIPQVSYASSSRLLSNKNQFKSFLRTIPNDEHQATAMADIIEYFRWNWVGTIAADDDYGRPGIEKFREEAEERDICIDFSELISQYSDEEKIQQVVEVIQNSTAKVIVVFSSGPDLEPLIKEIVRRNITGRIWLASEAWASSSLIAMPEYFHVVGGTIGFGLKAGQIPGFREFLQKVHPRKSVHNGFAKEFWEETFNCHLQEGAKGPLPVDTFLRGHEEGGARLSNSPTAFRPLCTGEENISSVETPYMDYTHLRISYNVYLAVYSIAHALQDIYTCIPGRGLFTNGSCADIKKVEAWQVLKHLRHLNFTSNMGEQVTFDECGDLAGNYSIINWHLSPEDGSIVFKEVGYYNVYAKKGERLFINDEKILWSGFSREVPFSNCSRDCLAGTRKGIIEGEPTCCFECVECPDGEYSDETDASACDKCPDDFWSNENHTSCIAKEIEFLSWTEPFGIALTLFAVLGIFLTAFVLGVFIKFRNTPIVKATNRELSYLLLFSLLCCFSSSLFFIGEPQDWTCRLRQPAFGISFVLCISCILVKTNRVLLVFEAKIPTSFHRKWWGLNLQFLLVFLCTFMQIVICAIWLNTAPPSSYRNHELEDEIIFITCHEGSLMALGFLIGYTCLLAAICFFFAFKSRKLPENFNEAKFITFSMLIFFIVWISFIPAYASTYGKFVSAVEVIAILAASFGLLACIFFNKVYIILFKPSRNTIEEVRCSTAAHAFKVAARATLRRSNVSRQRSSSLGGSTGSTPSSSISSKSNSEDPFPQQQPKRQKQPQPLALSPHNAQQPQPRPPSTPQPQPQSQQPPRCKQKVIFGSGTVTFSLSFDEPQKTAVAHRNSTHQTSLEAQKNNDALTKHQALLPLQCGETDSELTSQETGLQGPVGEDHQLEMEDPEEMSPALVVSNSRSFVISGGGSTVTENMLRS
Procedure: Following incubation, an oocyte was placed into a 100-μl plastic chamber and superfused with MBS at a flow rate of 0.5 ml/min using a peristaltic pump. Test molecules or inorganic polycations were added by rapidly moving the tubing into different buffers. Recording and current-passing electrodes were constructed from thin-wall capillary tubing pulled to a resistance of 1-3 Mohms and filled with 3 M KCl. […] Currents were recorded directly onto a strip chart recorder.

COc1cccc([C@@H](C)NCCCc2ccccc2Cl)c1 [NPS R-568, (R)-(+)-N-[3-(2-chlorophenyl)propyl]-α-methyl-3-methoxybenzylamine]
effect on calcitonin, oral (calcitonin): increase in calcitonin | effect on serum ionized calcium in human (serum ionized calcium): decrease in serum ionized calcium concentration | effect on Cl- current / intracellular Ca2+ [1]: potent molecule active on Xenopus oocytes expressing the parathyroid cell calcium receptor
